Patent publication US20020071842A1, “Soluble CD1 compositions and uses thereof” (priority 2000, published 2002)

Columns and labels:
Assay in all cases: Plate-bound mCD1d fusion protein hybridoma stimulation assay (IL-2 ELISA)
Assay type in all cases: cell-based, mouse
[1] = tested on: 14S.7.N hybridoma; conditions: 14S.7.N diverse TCR hybridoma; plate-bound mCD1d-IgGFc2a fusion protein preincubated with lipid antigen
Text: (§1) The CD1d-restricted T cell clones 24.7, 24.8, 24.9 (NKT cell) and 14S.6, 14S.7, 14S.10, and 14S.15 (diverse TCRs) were all derived from spleen of wild type C57BL/6 mice, as described previously (Behar, S. M. et al., J. Immunol., 162:161-7 (1999)). To generate T cell hybridomas, the activated T cells were fused to the aminopterin-sensitive BW5147 αβTCR^− thymoma cell line using PEG1500, and hybrids were selected in HAT medium (Life Technologies, Gaithersburg, Md.). Resulting TT hybridomas were tested for recognition of RMA-S cells transfected with mCD1D1 compared to untransfected RMA-S cells, as described below. […] The hybridomas are distinguished from the original T cell clones by the addition of a letter to their names. The KT/7, KT/12, KT/22, and KT/23 and Vβ/9 NKT cell hybridomas were derived from NK1.1^+ T cells enriched from spleen of C57BL/6 mice by depletion of CD8+ T cells, naive T cells, and B cells by mAbs (anti-B220, CD8, and CD62L, or anti-CD8α, CD8β, and Me114) bound to magnetic microbeads, or to plastic. The purified cells were stimulated either by the anti-CD3 KT3 mAb (KT/7, KT/12, KT/22, KT/23), or by an anti-Vβ8.2 mAb (Vβ/9), and addition of IL-2 or IL-2 and IL-7. After 4-5 days of culture the cells were fused with BW5147 thymoma cells. The VII68, VIII24, XVI9, and XV104 diverse TCR hybridomas were generated from CD4^+ T cells from class 110 mice, as described previously (Cardell, S. et al., J. Exp. Med., 182:993-1004 (1995)). The DN32D3 hybridoma was derived as described (Lantz, O., and Bendelac, A., J. Exp. Med., 180:1097-106 (1994).
(§2) To test for recognition of the mCD1d fusion protein and purified or synthetic antigens, 96 well protein A coated plates (Pierce Chemical Company) were incubated with 400-600 ng/well of the fusion protein or a negative control IgG2a antibody, RPC5.4 or UPC10, in PBS, at pH 7.2. Lipid antigens were diluted into PBS and added where specified at the indicated molar ratio of antigen to fusion protein, (when not specified the ratio was 40:1). Protein A plates containing the fusion protein and antigen were incubated 24-48 hr at 37° C., then washed three times with 200 μl/well sterile PBS, pH 7.2, and two times with 200 μl/well sterile culture medium (containing RPMI supplemented with L-glutamine and penicillin/streptomycin, Life Technologies, Gaithersburg, Md., and 10% bovine calf serum, Hyclone Laboratories, Logan, Utah). For assays in which the PI was phospholipase treated, it was first diluted into 0.01M Tris, 0.15M NaCl, pH 7.5, containing 0.25 U PI-specific phospholipase C or 0.5 U phospholipase D (Sigma, St Louis, Mo.), and incubated 30 minutes at room temperature, then added to the protein A plates as described above. For assays in which the pH was varied during antigen incubation with the fusion protein, the fusion protein and α-GalCer were diluted into a 20 mM citrate/phosphate buffer of the specified pH, which contained 0.15 M NaCl, and after incubation, the samples were neutralized by addition of 1M Tris, pH 7.5. Hybridoma cells were added to fusion protein/antigen treated plates at a concentration of 1×10^5 cells/well, in a total volume of 150 μl/well. Assays were performed using 2-6 replicate wells. In some assays, an anti-mCD1d blocking antibody (19G11) was included at a final concentration of 20 μg/ml. The plates were incubated at 37° C. for 16-20 hr, and culture supernatants were withdrawn for analysis. Each experiment was performed at least three times.
(§3) IL-2 secreted in the hybridoma stimulation assays was quantitated in a double antibody sandwich ELISA, by comparison to a standard curve of purified murine IL-2 (Pharmingen, San Diego, Calif.). Hybridoma plate stimulation supernatants (used either neat or diluted) and serially diluted IL-2 standards were added to 96 well ELISA plates coated with a rat anti-mouse IL-2 capture antibody (Pharmingen). […]

[2] = tested on: 24.9.E hybridoma; conditions: 24.9 E NKT hybridoma; plate-bound mCD1d-IgGFc2a fusion protein preincubated with lipid antigen
Text: as §1, §2, §3

[3] = tested on: VII68 hybridoma; conditions: VII68 diverse TCR hybridoma; plate-bound mCD1d-IgGFc2a fusion protein preincubated with lipid antigen
Text: as §1, §2, §3

[4] = tested on: DN32D3 hybridoma; conditions: DN32D3 NKT hybridoma; plate-bound mCD1d-IgGFc2a fusion protein preincubated with lipid antigen
Text: as §1, §2, §3

[5] = tested on: Vβ/9 hybridoma; conditions: Vβ/9 NKT hybridoma; plate-bound mCD1d-IgGFc2a fusion protein preincubated with lipid antigen
Text: as §1, §2, §3

[6] = tested on: 24.7.C hybridoma; conditions: 24 7.C NKT hybridoma; plate-bound mCD1d-IgGFc2a fusion protein preincubated with lipid antigen
Text: as §1, §2, §3

[7] = tested on: 14S.15.A hybridoma; conditions: 14S.15.A diverse TCR hybridoma; plate-bound mCD1d-IgGFc2a fusion protein preincubated with lipid antigen
Text: as §1, §2, §3

[8] = tested on: 14S.6.A hybridoma; conditions: 14S.6.A diverse TCR hybridoma; plate-bound mCD1d-IgGFc2a fusion protein preincubated with lipid antigen
Text: as §1, §2, §3

[9] = tested on: VIII24 hybridoma; conditions: VIII24 diverse TCR hybridoma; plate-bound mCD1d-IgGFc2a fusion protein preincubated with lipid antigen
Text: as §1, §2, §3

[10] = tested on: KT/12 hybridoma; conditions: KT/12 NKT hybridoma; plate-bound mCD1d-IgGFc2a fusion protein preincubated with lipid antigen
Text: as §1, §2, §3

[11] = tested on: KT/23 hybridoma; conditions: KT/23 NKT hybridoma; plate-bound mCD1d-IgGFc2a fusion protein preincubated with lipid antigen
Text: as §1, §2, §3

[12] = tested on: XV19 hybridoma; conditions: XV19 diverse TCR hybridoma; plate-bound mCD1d-IgGFc2a fusion protein preincubated with lipid antigen
Text: as §1, §2, §3

[13] = tested on: KT/22 hybridoma; conditions: KT/22 NKT hybridoma; plate-bound mCD1d-IgGFc2a fusion protein preincubated with lipid antigen
Text: as §1, §2, §3

[14] = tested on: XV104 hybridoma; conditions: XV104 diverse TCR hybridoma; plate-bound mCD1d-IgGFc2a fusion protein preincubated with lipid antigen
Text: as §1, §2, §3

[15] = tested on: KT/7 hybridoma; conditions: KT/7 NKT hybridoma; plate-bound mCD1d-IgGFc2a fusion protein preincubated with lipid antigen
Text: as §1, §2, §3

[16] = tested on: 24.8.A hybridoma; conditions: for IL-2 response to mCD1d fusion protein pre-treated with purified or synthetic lipid: 24.8.A hybridoma, compared to untreated or buffer treated fusion protein
Text: as §1, §2
IL-2 secreted in the hybridoma stimulation assays was quantitated in a double antibody sandwich ELISA, by comparison to a standard curve of purified murine IL-2 (Pharmingen, San Diego, Calif.). Hybridoma plate stimulation supernatants (used either neat or diluted) and serially diluted IL-2 standards were added to 96 well ELISA plates coated with a rat anti-mouse IL-2 capture antibody (Pharmingen).

CCCCCCCCCCCCCCCC(=O)OCC(COP(=O)(O)O)OC(=O)CCCCCCCCCCCCCCC (stereo not drawn) [PA, phosphatidic acid]
IL-2 secretion [1]: 0 (A “0” indicates a mean of less than 50 pg/ml IL-2 was secreted)
IL-2 secretion [2]: 0 (A “0” indicates a mean of less than 50 pg/ml IL-2 was secreted)
IL-2 secretion [3]: 0 (A “0” indicates a mean of less than 50 pg/ml IL-2 was secreted)
IL-2 secretion [4]: 0 (A “0” indicates a mean of less than 50 pg/ml IL-2 was secreted)
IL-2 secretion [5]: 0 (A “0” indicates a mean of less than 50 pg/ml IL-2 was secreted)
IL-2 secretion [6]: 0 (A “0” indicates a mean of less than 50 pg/ml IL-2 was secreted)
IL-2 secretion [7]: 0 (A “0” indicates a mean of less than 50 pg/ml IL-2 was secreted)
IL-2 secretion [8]: 0 (A “0” indicates a mean of less than 50 pg/ml IL-2 was secreted)
IL-2 secretion [9]: 0 (A “0” indicates a mean of less than 50 pg/ml IL-2 was secreted)
IL-2 secretion [10]: 0 (A “0” indicates a mean of less than 50 pg/ml IL-2 was secreted)
IL-2 secretion [11]: 0 (A “0” indicates a mean of less than 50 pg/ml IL-2 was secreted)
IL-2 secretion [12]: 0 (A “0” indicates a mean of less than 50 pg/ml IL-2 was secreted)
IL-2 secretion [13]: 0 (A “0” indicates a mean of less than 50 pg/ml IL-2 was secreted)
IL-2 secretion [14]: 0 (A “0” indicates a mean of less than 50 pg/ml IL-2 was secreted)
IL-2 secretion [15]: 0 (A “0” indicates a mean of less than 50 pg/ml IL-2 was secreted)
IL-2 response to mCD1d fusion protein pre-treated with purified or synthetic lipid [16]: little or no stimulation
IL-2 secretion ([16]; 24.8 A NKT hybridoma, plate-bound mCD1d-IgGFc2a fusion protein preincubated with lipid antigen): + (“+” indicates 50-250 pg/ml)

O[C@H]1[C@H](O)[C@@H](O)[C@H](O)[C@@H](O)[C@H]1O [inositol]
IL-2 response to mCD1d fusion protein pre-treated with purified or synthetic lipid [16]: little or no stimulation

CCCCCCCCCCCCCCCC(=O)O [palmitate, Palmitic acid]
IL-2 response to mCD1d fusion protein pre-treated with purified or synthetic lipid [16]: little or no stimulation

diacyl glyceride [DAG]
IL-2 secretion [1]: 0 (A “0” indicates a mean of less than 50 pg/ml IL-2 was secreted)
IL-2 secretion [2]: 0 (A “0” indicates a mean of less than 50 pg/ml IL-2 was secreted)
IL-2 secretion [3]: 0 (A “0” indicates a mean of less than 50 pg/ml IL-2 was secreted)
IL-2 secretion [4]: 0 (A “0” indicates a mean of less than 50 pg/ml IL-2 was secreted)
IL-2 secretion [5]: 0 (A “0” indicates a mean of less than 50 pg/ml IL-2 was secreted)
IL-2 secretion [6]: 0 (A “0” indicates a mean of less than 50 pg/ml IL-2 was secreted)
IL-2 secretion [7]: 0 (A “0” indicates a mean of less than 50 pg/ml IL-2 was secreted)
IL-2 secretion [8]: 0 (A “0” indicates a mean of less than 50 pg/ml IL-2 was secreted)
IL-2 secretion [9]: 0 (A “0” indicates a mean of less than 50 pg/ml IL-2 was secreted)
IL-2 secretion [10]: 0 (A “0” indicates a mean of less than 50 pg/ml IL-2 was secreted)
IL-2 secretion [11]: 0 (A “0” indicates a mean of less than 50 pg/ml IL-2 was secreted)
IL-2 secretion [12]: 0 (A “0” indicates a mean of less than 50 pg/ml IL-2 was secreted)
IL-2 secretion [13]: 0 (A “0” indicates a mean of less than 50 pg/ml IL-2 was secreted)
IL-2 secretion [14]: 0 (A “0” indicates a mean of less than 50 pg/ml IL-2 was secreted)
IL-2 secretion [15]: 0 (A “0” indicates a mean of less than 50 pg/ml IL-2 was secreted)
IL-2 response to mCD1d fusion protein pre-treated with purified or synthetic lipid [16]: little or no stimulation

phosphatidylethanolamine [PE]
IL-2 secretion [1]: 0 (A “0” indicates a mean of less than 50 pg/ml IL-2 was secreted)
IL-2 secretion [2]: 0 (A “0” indicates a mean of less than 50 pg/ml IL-2 was secreted)
IL-2 secretion [4]: 0 (A “0” indicates a mean of less than 50 pg/ml IL-2 was secreted)
IL-2 secretion [6]: 0 (A “0” indicates a mean of less than 50 pg/ml IL-2 was secreted)
IL-2 secretion [7]: 0 (A “0” indicates a mean of less than 50 pg/ml IL-2 was secreted)
IL-2 secretion [8]: + (“+” indicates 50-250 pg/ml)
IL-2 response to mCD1d fusion protein pre-treated with purified or synthetic lipid [16]: dose dependent responses
